Measured values reported in PMC6100582 (Molecules : A Journal of Synthetic Chemistry and Natural …, 2018).
In brackets after ≈: the same amount, converted by molar mass. Where two headings read alike, the source gives them in different places.

How the values were obtained:
[1] = system: HL-60 (acute myeloid leukemia); experiment: Antiproliferative screening (cytostatic activity); type: cell-based; conditions: Homo sapiens, HL-60; 72 h, IncuCyte imaging; read-out: IC50 HL-60
Protocol: (§1) Cytostatic activity was evaluated in vitro on nine different types of human tumor cell lines: Capan-1, Hap1, HCT-116, and NCI-H460, as well as hematological tumors such as DND-41, HL-60, K-562, MM.1S and Z-138 as described previously. All human tumor cell lines were acquired from the American Type Culture Collection (ATCC, Manassas, VA, USA), except for the DND-41 cell line which was purchased from the Deutsche Sammlung von Mikroorganismen und Zellkulturen (DSMZ Leibniz-Institut, Braunschweig, Germany) and the Hap1 cell line which was purchased from Horizon Discovery (Waterbeach, UK). Capan-1, Hap1, HL-60, K-562, Z-138, MM.1S and DND-41 were cultured in Iscove′s Modified Dulbecco′s Medium (IMDM, Gibco Life Technologies, Gaithersburg, MD, USA), HCT-116 were grown in McCoy′s 5A Medium (Gibco Life Technologies) and NCI-H460 were cultured in RPMI (Gibco Life Technologies). All media were supplemented with 10% FBS (HyClone, GE Healthcare Life Sciences, USA). Adherent cell lines HCT-116, Hap1, NCI-H460, and Capan-1 cells were seeded at a density between 400 and 1250 cells per well, in 384-well, black-walled, clear-bottomed tissue culture plates (Greiner Bio-One, Kremsmünster, Germany). After overnight incubation, cells were treated with test compounds at four different concentrations ranging from 100 to 0.8 µM. Suspension cell lines HL-60, K-562, Z-138, MM.1S, and DND-41 were seeded at densities ranging from 3000 to 10,000 cells per well in 384-well, black-walled, clear-bottomed tissue culture plates containing test compounds at the same four concentrations. The plates were incubated and monitored at 37 °C for 72 h in an IncuCyte (Essen BioScience Inc., Ann Arbor, MI, USA) for real-time imaging. Images were taken every 3 h, with one field image per well under 10× magnification. All compounds were tested with duplicate data points and averaged. […]

[2] = system: Hap1 (chronic myeloid leukemia); experiment: Antiproliferative screening (cytostatic activity); type: cell-based; conditions: Homo sapiens, HAP1; 72 h, IncuCyte imaging; read-out: IC50 Hap1
Protocol: as §1

[3] = system: Enterococcus faecalis ATCC 29212; experiment: Minimum biofilm eradication assay; type: cell-based
Protocol: (§2) MBECs of fumardiamides 4a–f and succindiamides 5a–f were determined as follows. Each well (96-well plate) was filled with 100 µl of bacterial (10^7 CFU/mL) or yeast (5 × 10^6 CFU/mL) suspension. When the inhibition of yeast biofilm formation was tested, the wells were pre-treated with fetal bovine serum (FBS) (250 µl per well). Negative controls contained broth only. Positive controls were performed using standard antimicrobial drugs gentamycin (Gen) and Amph, respectively. […] Following incubation period, each well was aspirated, washed three times and vigorously shaken to remove all non-adherent bacteria/yeast. The remaining attached cells were fixed with methanol (15 min) and the plates were left to dry overnight. Formed biofilm was stained with crystal violet (1%, 5 min). Excess stain was rinsed by placing the plate under running tap water and the plates were left to dry. Adherent cells were solubilized using ethanol. The absorbance was read at 570 nm. The MBEC value represents the lowest dilution of a compound at which bacteria fail to grow.

[4] = system: Pseudomonas aeruginosa ATCC 27853; experiment: Minimum biofilm eradication assay; type: cell-based
Protocol: as §2

[5] = system: Proteus mirabilis MFBF 10430; experiment: Minimum biofilm eradication assay; type: cell-based
Protocol: as §2

[6] = system: Salmonella enteritidis MFBF 11945; experiment: Minimum biofilm eradication assay; type: cell-based
Protocol: as §2

[7] = system: Acinetobacter baumannii MFBF 10913; experiment: Minimum biofilm eradication assay; type: cell-based
Protocol: as §2

[8] = system: Staphylococcus aureus ATCC 6538; experiment: Minimum biofilm eradication assay; type: cell-based
Protocol: as §2

[9] = system: Bacillus cereus ATCC 11778; experiment: Minimum biofilm eradication assay; type: cell-based
Protocol: as §2

[10] = system: Escherichia coli ATCC 10536; experiment: Minimum biofilm eradication assay; type: cell-based
Protocol: as §2

[11] = system: Serratia marcescens ATCC 10905; experiment: Minimum biofilm eradication assay; type: cell-based
Protocol: as §2

[12] = system: Bacillus subtilis ATCC 6633; experiment: Minimum biofilm eradication assay; type: cell-based
Protocol: as §2

[13] = system: Streptococcus pneumoniae MFBF 10373; experiment: Antimicrobial susceptibility assay in vitro (MIC determination); type: cell-based; conditions: MFBF10373, serial microdilution, 18 h, 35 °C
Protocol: (§3) Stock solutions of the tested compounds were prepared in DMSO (10 mg/mL). […] The absorbance was recorded at 540 nm. As a positive quality control (susceptibility of strains) tetracycline hydrochloride (TC) (Sigma-Aldrich) was added into wells.

[14] = system: Acinetobacter baumannii MFBF 10913; experiment: as above; type: cell-based; conditions: MFBF10913, serial microdilution, 18 h, 35 °C
Protocol: as §3

[15] = system: Bacillus cereus ATCC 11778; experiment: as above; type: cell-based; conditions: ATCC11778, serial microdilution, 18 h, 35 °C
Protocol: as §3

[16] = system: Bacillus subtilis ATCC 6633; experiment: as above; type: cell-based; conditions: ATCC6633, serial microdilution, 18 h, 35 °C
Protocol: as §3

[17] = system: Enterococcus faecalis ATCC 29212; experiment: as above; type: cell-based
in vitro = conditions: African green monkey
Para-Influenza-3 Virus = experiment: organism not typed; type: cell-based; conditions: Vero cells
Punta Toro Virus = experiment: microbe, parasite or virus in culture; type: cell-based; conditions: Vero cells
Yellow Fever Virus = experiment: microbe, parasite or virus in culture; type: cell-based; conditions: Vero
[18] = ATCC29212, Enterococcus faecalis ATCC 29212, broth dilution, 24 h, 37 °C, read-out: MIC
[19] = MTS, read-out: EC50 Para-Influenza-3 Virus, MTS
[20] = MTS, read-out: EC50 Punta Toro Virus, MTS
[21] = read-out: EC50 Yellow Fever Virus, MTS
[22] = Enterococcus faecalis, ATCC29212, 24 h
[23] = visual CPE score, read-out: EC50 Para-Influenza-3 Virus, Visual CPE Score
[24] = visual CPE score, read-out: EC50 Punta Toro Virus, Visual CPE Score
[25] = read-out: EC50 Yellow Fever Virus, Visual CPE Score

Structure (SMILES) | IC50 [1] [µM] | IC50 [2] [µM] | MBEC [3] [µg/mL] | MBEC [4] [µg/mL] | MBEC [5] [µg/mL] | MBEC [6] [µg/mL] | MBEC [7] [µg/mL] | MBEC [8] [µg/mL] | MBEC [9] [µg/mL] | MBEC [10] [µg/mL] | MBEC [11] [µg/mL] | MBEC [12] [µg/mL] | MIC [13] [µg/mL] | MIC [14] [µg/mL] | MIC [15] [µg/mL] | MIC [16] [µg/mL] | CC50 (in vitro) [µg/mL] | EC50 (Para-Influenza-3 Virus; [19]) [µM] | EC50 (Punta Toro Virus; [20]) [µM] | EC50 (Yellow Fever Virus; [21]) [µM] | also measured
COc1cc(NC(C)CCCNC(=O)/C=C/C(=O)Nc2ccc(Cl)cc2)c2ncccc2c1 (stereo not drawn) [Compound 4d, (2E)-N-(4-Chlorophenyl)-N′-{4-[(6-methoxyquinolin-8-yl)amino]pentyl}but-2-enediamide] | > 100 | > 100 | 50 | >100 | >100 | >100 | 100 | 25 | >100 | 50 | >100 | >100 | 12.5 (≈ 26.8 µM) | 12.5 (≈ 26.8 µM) | > 100 | > 100 | > 50 | > 50 | > 50 | > 50 | MIC [17, 18]: 64 µg/mL (≈ 137 µM); melting point: 223 to 226 °C
COc1cc(NC(C)CCCNC(=O)/C=C/C(=O)Nc2cccc(F)c2)c2ncccc2c1 (stereo not drawn) [Compound 4a, (2E)-N-(3-Fluorophenyl)-N′-{4-[(6-methoxyquinolin-8-yl)amino]pentyl}but-2-enediamide] | 5.7 | 19.3 | 25 | 25 | >100 | >100 | 6.3 | 12.5 | >100 | 100 | 25 | 50 | > 100 | > 100 | > 100 | 50 (≈ 111 µM) | 46.9 (≈ 104 µM) | > 50 | > 50 | > 50 | MIC [17, 22]: 128 µg/mL (≈ 284 µM); melting point: 203 to 204 °C
COc1cc(NC(C)CCCNC(=O)/C=C/C(=O)Nc2cccc(Cl)c2)c2ncccc2c1 (stereo not drawn) [Compound 4c, (2E)-N-(3-Chlorophenyl)-N′-{4-[(6-methoxyquinolin-8-yl)amino]pentyl}but-2-enediamide] | > 100 | > 100 | 25 | 50 | >100 | >100 | 100 | 12.5 | 25 | 50 | >100 | 50 | 25 (≈ 53.5 µM) | 25 (≈ 53.5 µM) | 25 (≈ 53.5 µM) | 50 (≈ 107 µM) | > 50 | > 50 | 5.5 | > 50 | MIC [17, 18]: 256 µg/mL (≈ 548 µM); EC50 (Para-Influenza-3 Virus; [23]): > 50 µM; EC50 (Punta Toro Virus; [24]): > 50 µM; EC50 (Yellow Fever Virus; [25]): > 50 µM; melting point: 187 to 188 °C
COc1cc(NC(C)CCCNC(=O)/C=C/C(=O)Nc2ccc(C(F)(F)F)cc2)c2ncccc2c1 (stereo not drawn) [Compound 4f, (2E)-N′-{4-[(6-Methoxyquinolin-8-yl)amino]pentyl}-N-[4-(trifluoromethyl)phenyl]but-2-enediamide] | > 100 | > 100 | 50 | 25 | >100 | >100 | 100 | 25 | >100 | 50 | >100 | >100 | 50 (≈ 99.9 µM) | 25 (≈ 49.9 µM) | > 100 | > 100 | > 50 | > 50 | > 50 | > 50 | MIC [17, 18]: 64 µg/mL (≈ 128 µM); melting point: 189 to 191 °C
COc1cc(NC(C)CCCNC(=O)/C=C/C(=O)Nc2cccc(C(F)(F)F)c2)c2ncccc2c1 (stereo not drawn) [Compound 4e, (2E)-N′-{4-[(6-Methoxyquinolin-8-yl)amino]pentyl}-N-[3-(trifluoromethyl)phenyl]but-2-enediamide] | > 100 | > 100 | 50 | 50 | >100 | >100 | 100 | 50 | >100 | 50 | >100 | >100 | 50 (≈ 99.9 µM) | 25 (≈ 49.9 µM) | > 100 | > 100 | > 50 | > 50 | 5.4 | > 50 | MIC [17, 22]: 128 µg/mL (≈ 256 µM); EC50 (Para-Influenza-3 Virus; [23]): > 50 µM; EC50 (Punta Toro Virus; [24]): > 50 µM; EC50 (Yellow Fever Virus; [25]): > 50 µM; melting point: 149 to 150 °C
COc1cc(NC(C)CCCNC(=O)/C=C/C(=O)Nc2ccc(F)cc2)c2ncccc2c1 (stereo not drawn) [Compound 4b, (2E)-N-(4-Fluorophenyl)-N′-{4-[(6-methoxyquinolin-8-yl)amino]pentyl}but-2-enediamide] | > 100 | 66.4 | 25 | 12.5 | 25 | >100 | 25 | 12.5 | 25 | 50 | >100 | 25 | 12.5 (≈ 27.7 µM) | 25 (≈ 55.5 µM) | 25 (≈ 55.5 µM) | 25 (≈ 55.5 µM) | > 50 | > 50 | > 50 | > 50 | MIC [17, 18]: 64 µg/mL (≈ 142 µM); melting point: 226 to 227 °C
